According to patent US11058717B2, “Application of substances containing AuCs in preparing medicine for preventing and treating Alzheimer's disease” (Shenzhen Profound-View Pharma Tech Co., Ltd, priority 2017, dated 2021):

Legend:
[1] = molecular target: T1, α-syn (Homo sapiens, UniProt P37840); test: In vitro α-syn aggregation kinetics (ThT fluorescent labeling); format: biochemical; conditions: L-NIBC only, 1.0 and 10.0 ppm; 35 μM α-syn, 37° C.
T1 construct: purchased Bachem Corp
Source text: Thioflavin T (abbreviation: ThT) is a dye for dyeing amyloid fibers specifically. […] When it encounters amyloid polypeptide or protein with a fiber structure, it will immediately couple with the amyloid polypeptides or proteins and its fluorescence intensity will increase exponentially. For this reason, ThT is widely used as markers to monitor amyloidosis of peptides or proteins. This embodiment utilizes ThT fluorescent labeling method to monitor the kinetics process of fibrosis aggregation of α-syn with the existence of AuCs. The specific experiment method was as follows:
Pretreatment of α-syn monomers: Freeze-dried powder (Bachem Corp.) of α-syn was dissolved in HFIP to obtain a 1 g/L α-syn solution. The solution was incubated at room temperature for 2-4 h after sealing, then blowed to dry HFIP by high-purity nitrogen in a fume hood. […]
Sample preparation and detection: Ligand-modified AuCs in different concentrations listed in Table 1 were added to 35 μM α-syn PBS solutions respectively, and incubated continuously in a 96-well plate at 37° C., by ThT fluorescent labeling method, and were monitored the fluorescence intensity by microplate reader once every 10 minutes. The kinetic process of α-syn aggregation was characterized through the change of fluorescence intensity of ThT. […]

[2] = test system: SH-SY5Y neuroblastoma cell line; test: Aβ induced AD cell model, cell viability by CCK-8; format: cell-based; conditions: 0.01-20 ppm (L-NIBC 20 ppm); 20 μM Aβ(1-40), 24 h
Experimental: The cell viability was used as an index in the experiment of this embodiment. […] The cells used in the experiment were SH-SY5Y neuroblastoma cell line. […] Specific method:
1) SH-sy5y cells (cells had passed to the sixth generation) in logarithmic growth phase were diluted with complete medium (MEM+10% FBS+1% penicillin-streptomycin) to get a cell suspension in a density of 5×10^4/mL. The suspension was inoculated 200 μL per well into a 96-well plate, and cultivated in an incubator with 5% CO2 at 37° C. A sample was added when the cells attached to the wells.
2) 100 μL ligand-modified AuCs samples or ligand-modified gold nanoparticles samples, at different particle sizes and at concentrations of 0.04 ppm, 0.4 ppm, 4 ppm, 20 ppm, 40 ppm and 80 ppm respectively, which were dissolved by maintenance medium (MEM+2% FBS+1% penicillin-streptomycin) were added into the incubated suspension obtained from Step 1). After incubating in the incubator for 2 h, 100 μL 80 μM Aβ(1-40) was added, and then the mixture was incubated in the incubator for 24 h. […] The culture medium was removed, maintenance medium (MEM) containing 10% CCK-8 at 100 μL/well was added and was incubated for 4 h, the absorbance of each well at 450 nm was measured to reflect the prevention and treatment effects of ligand-modified AuCs on Aβ(1-40) lesion.

[3] = molecular target: T2, Aβ(1-40) (Homo sapiens, UniProt P05067); test: AFM topography of Aβ(1-40) after coincubation for 48 h; format: biochemical; conditions: coincubated for 48 h
T2 construct: Freeze-dried powder of amyloid polypeptide Aβ(1-40) (Invitrogen Corp.); purchased Invitrogen Corp
Experimental: Panel A is the AFM topography after Aβ(1-40) was incubated alone for 48 h. Panel B is an AFM topography after Aβ(1-40) was coincubated with L-NIBC for 48 h. Panel C and panel D are AFM topographies after Aβ(1-40) was coincubated with gold nanoparticles with an average particle size of 6.0 nm and 3.6 nm respectively (modified with L-NIBC) for 48 h. And panel E is an AFM topography after Aβ(1-40) was coincubated with AuCs in an average particle size of 1.8 nm (modified with L-NIBC) for 48 h.

T2 sequence (P05067 672-711 limits assumed): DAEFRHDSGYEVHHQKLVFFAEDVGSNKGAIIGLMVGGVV

effect on kinetics of α-syn aggregation [1]: did not have an obvious effect
SMILES: CC(C)C(=O)N[C@@H](CS)C(=O)O [L-NIBC, N-isobutyryl-L-cysteine]
effect on cell viability in Aβ induced AD cell model [2]: did not improve cell viability
Aβ(1-40) fibers in AFM topography [3]: no obvious effect on the formation of Aβ(1-40) fibers
